According to US20240343740A1, “MACROCYCLIC GLUCAGON-LIKE PEPTIDE 1 RECEPTOR AGONISTS” (Eli Lilly and Company, priority 2021, published 2024):
Structures can show the parent of a compound that is named as a salt.

Key:
human GLP-1R [1] = biological target: T1, human GLP-1R (Homo sapiens, UniProt P43220); test: Human GLP-1 Receptor HEK293 cell cAMP assay, 581 fmol/mg GLP-1R expression density; assay type: cell-based; parameters: expressed in transfected cells; host or cells: HEK293 clonal cell line; settings: HEK293 cell line with 581 fmol/mg expression density of GLP-1R; for EC50: geometric mean, read-out: EC50 nM (SEM, n), intracellular cAMP response, relative EC50; for Emax: percent of maximal response to GLP-1(7-36)NH2, arithmetic mean, read-out: Emax % (SEM, n), intracellular cAMP response
Description: (§1) Human GLP-1 Receptor HEK293 Cell cAMP Assay
(§2) GLP-1 Receptor functional activity is determined using cAMP formation in an HEK293 clonal cell line expressing human GLP-1R (NCBI accession number NP_002053) at an expression density of 581±94 (n=6) and 104±12 (n=5) fmol/mg protein (determined using [^125I]GLP-1(7-36)NH2 homologous competition binding analysis). The hGLP-1R receptor expressing cells are treated with compound (20 point concentration-response curve in DMSO, 2.75-fold Labcyte Echo direct dilution, 384 well plate Corning Cat #3570) in DMEM (Gibco Cat #31053) supplemented with 1× GlutaMAX™ (Gibco Cat #35050), 0.1% bovine casein (Sigma C4765-10ML), 250 μM IBMX (3-Isobutyl-1-methylxanthine, Acros Cat #228420010) and 20 mM HEPES (Gibco Cat #15630) in a 20 μL assay volume (final DMSO concentration is 0.5%). After a 30 min incubation at 37° C., the resulting increase in intracellular cAMP is quantitatively determined using the CisBio cAMP Dynamic 2 HTRF Assay Kit (62AM4PEJ). Briefly, cAMP levels within the cell are detected by adding the cAMP-d2 conjugate in cell lysis buffer (10 μL) followed by the antibody anti-cAMP-Eu^3+-Cryptate, also in cell lysis buffer (10 μL). The resulting competitive assay is incubated for at least 60 min at RT, then detected using a PerkinElmer Envision® instrument with excitation at 320 nm and emission at 665 nm and 620 nm. Envision units (emission at 665 nm/620 nm*10,000) are inversely proportional to the amount of cAMP present and are converted to nM cAMP per well using a cAMP standard curve. The amount of cAMP generated (nM) in each well is converted to a percent of the maximal response observed with human GLP-1(7-36)NH2. A relative EC50 value and percent top (Emax) are derived by non-linear regression analysis using the percent maximal response vs. the concentration of compound added, fitted to a four-parameter logistic equation.

human GLP-1R [2] = biological target: T1, human GLP-1R; test: Human GLP-1 Receptor HEK293 cell cAMP assay, 104 fmol/mg GLP-1R expression density; assay type: cell-based; parameters: expressed in transfected cells; host or cells: HEK293 clonal cell line; settings: HEK293 cell line with 104 fmol/mg expression density of GLP-1R; for EC50: geometric mean, read-out: EC50 nM (SEM, n), intracellular cAMP response, relative EC50; for Emax: percent of maximal response to GLP-1(7-36)NH2, arithmetic mean, read-out: Emax % (SEM, n), intracellular cAMP response
Description: as §1, §2

T1 sequence (P43220 24-463): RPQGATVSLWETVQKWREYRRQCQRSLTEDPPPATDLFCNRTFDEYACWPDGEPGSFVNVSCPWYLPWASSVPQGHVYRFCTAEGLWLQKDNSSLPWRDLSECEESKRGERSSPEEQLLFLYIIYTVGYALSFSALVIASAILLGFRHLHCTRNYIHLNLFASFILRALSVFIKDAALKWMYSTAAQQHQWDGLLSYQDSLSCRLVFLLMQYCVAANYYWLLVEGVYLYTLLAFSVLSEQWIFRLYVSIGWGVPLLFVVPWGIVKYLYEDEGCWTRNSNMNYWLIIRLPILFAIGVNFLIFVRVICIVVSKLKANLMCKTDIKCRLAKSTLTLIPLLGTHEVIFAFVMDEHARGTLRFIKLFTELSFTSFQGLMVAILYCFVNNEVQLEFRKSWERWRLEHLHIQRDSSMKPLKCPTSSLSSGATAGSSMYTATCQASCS

Row | SMILES | EC50 (human GLP-1R [1]) | Emax (human GLP-1R [1]) | EC50 (human GLP-1R [2]) | Emax (human GLP-1R [2])
1 | COc1ccc(-c2ccc3c(c2)CCCOc2cc(ccc2Cc2nc4ccc(C(=O)O)cc4n2C[C@@H]2CCO2)-c2cccc(n2)OC3)cn1 [Example 29, (S)-2-((5^4-(6-Methoxypyridin-3-yl)-3,9-dioxa-2(2,6)-pyridina-1(1,3),5(1,2)-dibenzenacyclononaphane-1^4-yl)methyl)-1-(oxetan-2-ylmethyl)-1H-benzo[d]imidazole-6-carboxylic acid] | 262 nM | 92.4% | 562 nM | 59.2%
2 | O=C(O)c1ccc2nc(Cc3ccc4cc3OCCCc3cc(-c5cn[nH]c5)ccc3COc3cccc-4n3)n(C[C@@H]3CCO3)c2c1 [Example 30, (S)-2-((5^4-(1H-Pyrazol-4-yl)-3,9-dioxa-2(2,6)-pyridina-1(1,3),5(1,2)-dibenzenacyclononaphane-1^4-yl)methyl)-1-(oxetan-2-ylmethyl)-1H-benzo[d]imidazole-6-carboxylic acid] | 35.6 nM | 98.1% | 118 nM | 77.1%
3 | Cn1nccc1-c1ccc2c(c1)CCCOc1cc(ccc1Cc1nc3ccc(C(=O)O)cc3n1C[C@@H]1CCO1)-c1cccc(n1)OC2 [Example 31, (S)-2-((5^4-(1-Methyl-1H-pyrazol-5-yl)-3,9-dioxa-2(2,6)-pyridina-1(1,3),5(1,2)-dibenzenacyclononaphane-1^4-yl)methyl)-1-(oxetan-2-ylmethyl)-1H-benzo[d]imidazole-6-carboxylic acid] | 70.1 nM | 104% | 251 nM | 88.8%
4 | Cn1ncc(-c2ccc3c(c2)CCCOc2cc(ccc2Cc2nc4ccc(C(=O)O)cc4n2C[C@@H]2CCO2)-c2cccc(n2)OC3)n1 [Example 32, (S)-2-((5^4-(2-Methyl-2H-1,2,3-triazol-4-yl)-3,9-dioxa-2(2,6)-pyridina-1(1,3),5(1,2)-dibenzenacyclononaphane-1^4-yl)methyl)-1-(oxetan-2-ylmethyl)-1H-benzo[d]imidazole-6-carboxylic acid] | 178 nM | 98.9% | 530 nM | 70.9%
5 | CS(=O)(=O)c1ccc(-c2ccc3c(c2)CCCOc2cc(ccc2Cc2nc4ccc(C(=O)O)cc4n2C[C@@H]2CCO2)-c2cccc(n2)OC3)cc1 [Example 33, (S)-2-((5^4-(4-(Methylsulfonyl)phenyl)-3,9-dioxa-2(2,6)-pyridina-1(1,3),5(1,2)-dibenzenacyclononaphane-1^4-yl)methyl)-1-(oxetan-2-ylmethyl)-1H-benzo[d]imidazole-6-carboxylic acid] | 40.8 nM | 112% | 111 nM | 85%
6 | COc1cc(-c2ccc3c(c2)CCCOc2cc(ccc2Cc2nc4ccc(C(=O)O)cc4n2C[C@@H]2CCO2)-c2cccc(n2)OC3)ccn1 [Example 34, (S)-2-((5^4-(2-Methoxypyridin-4-yl)-3,9-dioxa-2(2,6)-pyridina-1(1,3),5(1,2)-dibenzenacyclononaphane-1^4-yl)methyl)-1-(oxetan-2-ylmethyl)-1H-benzo[d]imidazole-6-carboxylic acid] | 167 nM | 110% | 616 nM | 82.3%
7 | O=C(O)c1ccc2nc(Cc3ccc4cc3OCCCc3cc(-c5cnn(C6CC6)c5)ccc3COc3cccc-4n3)n(C[C@@H]3CCO3)c2c1 [Example 35, (S)-2-((5^4-(1-Cyclopropyl-1H-pyrazol-4-yl)-3,9-dioxa-2(2,6)-pyridina-1(1,3),5(1,2)-dibenzenacyclononaphane-1^4-yl)methyl)-1-(oxetan-2-ylmethyl)-1H-benzo[d]imidazole-6-carboxylic acid] | 95.8 nM | 112% | 385 nM | 88.1%
8 | Cn1cc(-c2ccc3c(c2)CCCOc2cc(ccc2Cc2nc4ccc(C(=O)O)cc4n2C[C@@H]2CCO2)-c2cccc(n2)OC3)ccc1=O [Example 36, (S)-2-((5^4-(1-Methyl-6-oxo-1,6-dihydropyridin-3-yl)-3,9-dioxa-2(2,6)-pyridina-1(1,3),5(1,2)-dibenzenacyclononaphane-1^4-yl)methyl)-1-(oxetan-2-ylmethyl)-1H-benzo[d]imidazole-6-carboxylic acid] | 44 nM | 108% | 149 nM | 80%
9 | O=C(O)c1ccc2nc(Cc3ccc4cc3OCCCc3cc(-c5cccnc5)ccc3COc3cccc-4n3)n(C[C@@H]3CCO3)c2c1 [Example 37, (S)-1-(Oxetan-2-ylmethyl)-2-((5^4-(pyridin-3-yl)-3,9-dioxa-2(2,6)-pyridina-1(1,3),5(1,2)-dibenzenacyclononaphane-1^4-yl)methyl)-1H-benzo[d]imidazole-6-carboxylic acid] | 179 nM | 103% | 506 nM | 79.7%
10 | CNC(=O)c1ccc(-c2ccc3c(c2)CCCOc2cc(ccc2Cc2nc4ccc(C(=O)O)cc4n2C[C@@H]2CCO2)-c2cccc(n2)OC3)cc1 [Example 38, (S)-2-((5^4-(4-(Methylcarbamoyl)phenyl)-3,9-dioxa-2(2,6)-pyridina-1(1,3),5(1,2)-dibenzenacyclononaphane-1^4-yl)methyl)-1-(oxetan-2-ylmethyl)-1H-benzo[d]imidazole-6-carboxylic acid] | 300 nM | 90.1% | 613 nM | 56.9%
11 | O=C(O)c1ccc2nc(Cc3ccc4cc3OCCCc3cc(-c5ccc(CO)cc5)ccc3COc3cccc-4n3)n(C[C@@H]3CCO3)c2c1 [Example 39, (S)-2-((5^4-(4-(Hydroxymethyl)phenyl)-3,9-dioxa-2(2,6)-pyridina-1(1,3),5(1,2)-dibenzenacyclononaphane-1^4-yl)methyl)-1-(oxetan-2-ylmethyl)-1H-benzo[d]imidazole-6-carboxylic acid] | 244 nM | 99% | 762 nM | 76.6%
12 | Cn1cc(-c2ccc3c(c2)CCCOc2cc(ccc2Cc2nc4ccc(C(=O)O)cc4n2C[C@@H]2CCO2)-c2cccc(n2)OC3)cn1 [Example 40, (S)-2-((5^4-(1-Methyl-1H-pyrazol-4-yl)-3,9-dioxa-2(2,6)-pyridina-1(1,3),5(1,2)-dibenzenacyclononaphane-1^4-yl)methyl)-1-(oxetan-2-ylmethyl)-1H-benzo[d]imidazole-6-carboxylic acid] | 42.4 nM | 110% | 154 nM | 85.9%
13 | N#Cc1ccc2c(c1)CCCOc1cc(ccc1Cc1nc3ccc(-c4nnn[nH]4)cc3n1C[C@@H]1CCO1)-c1cccc(n1)OC2 [Example 41, (S)-1^4-((1-(Oxetan-2-ylmethyl)-6-(1H-tetrazol-5-yl)-1H-benzo[d]imidazol-2-yl)methyl)-3,9-dioxa-2(2,6)-pyridina-1(1,3),5(1,2)-dibenzenacyclononaphane-5^4-carbonitrile] | 184 nM | 89.1% | 713 nM | 60.3%
14 | N#Cc1ccc2c(c1)OCCc1cc(c(F)cc1Cc1nc3ccc(C(=O)O)cc3n1C[C@@H]1CCO1)-c1cccc(n1)OC2 [Example 42, (S)-2-((5^4-Cyano-1^6-fluoro-3,6-dioxa-2(2,6)-pyridina-1(1,3),5(1,2)-dibenzenacyclooctaphane-1^4-yl)methyl)-1-(oxetan-2-ylmethyl)-1H-benzo[d]imidazole-6-carboxylic acid] | 187 nM | 103% | 539 nM | 66.4%
15 | COc1cc(C(=O)O)cc2c1nc(Cc1cc(F)c3cc1OCCCc1cc(C#N)cnc1COc1cccc-3n1)n2C[C@@H]1CCO1 [Example 43, (S)-2-((5^5-Cyano-1^6-fluoro-3,9-dioxa-2(2,6),5(2,3)-dipyridina-1(1,3)-benzenacyclononaphane-1^4-yl)methyl)-4-methoxy-1-(oxetan-2-ylmethyl)-1H-benzo[d]imidazole-6-carboxylic acid diformate salt] | 48.6 nM | 86.9% | 194 nM | 72%
